# Legend:
# [1] = test system: patients with Alzheimer's disease; conditions: cited from earlier work; for Effects on Cognitive Function: cognitive decline in Alzheimer's disease
# aged ovariectomized rats = experiment: Radial arm maze test, Example 2 (chronic estrogen-deficient aged rats); type: in vivo
# Protocol: Thirty-six retired breeder female rats (8-10 months old) were purchased from Harlan Sprague Dawley, Inc. The rats were housed in separate cages and were initially maintained on a 12:12 hour light/dark cycle with access to Chow diet and water ad libitum. All procedures done on the animals were approved by the Animal Care and Use Committee of Wake Forest University. After bilateral ovariectomy, the rats were fed with a casein/lactalbumin-based control diet for about 12 months (until about 2 years of age). The rats were then evaluated in a 8-arm radial arm maze to determine their baseline working memory. […] The rats were tested in the maze at 1 and 3 months after the initiation of the treatments.
# After 3 months of treatment, each of the 3 groups were divided randomly into two subgroups. One subgroup was given Hup A orally (0.3 mg/Kg of body weight) in addition to their control regimen or treatment with SPEs or E2 and the other subgroup received no Hup A. After 3 weeks of Hup A supplementation, working memory was reevaluated.
# A pellet of fudge brownie (Little Debbie, Mckee Foods, Collegedale, Tenn.) was placed in each of the 8 food wells located at the end of each arm to serve as a reward. The rats were allowed to explore the maze for 10 min or until all eight rewards were eaten. The training session was terminated when the rats were able to eat all 8 rewards within 10 min.
# After the training, the rats were tested once per day 4 consecutive days per week for two weeks. One day prior to the test, and during the first three test days, the food intake was reduced to 25% of the normal 40 g/day food intake. A visit to an arm was recorded if the rat reached three-fourths of the length of the arm. The maze performance was recorded as the number of correct choices in the first 8 visits. A mistake was counted if a rat reentered an arm from which the rat has already eaten the bait. A test session of a rat was terminated when the rat ate all eight rewards or 10 min had elapsed. […]
# [2] = in vivo; cited from earlier work
# patients = conditions: Tacrine 100 mg/day; cited from earlier work
# BuChE (blood) = conditions: read-out: IC50 BuChE, in vitro; cited from earlier work
# liver = conditions: in vivo; cited from earlier work
# [3] = test system: ovariectomized retired breeder female rats; experiment: Radial arm maze test, Example 1 (10 months of treatment); type: in vivo; conditions: oral in diet, given alone
# Protocol: Eight-four retired breeder females (Sprague-Dawley), weighing 300-360 g (8-10 months old), were purchased from Harlan Sprague Dawley, Inc. The rats were housed in separate cages and were initially maintained on a 12:12 hour light/dark cycle with access to Chow diet and water ad libitum. All procedures done on the animals were approved by the Animal Care and Use Committee of Wake Forest University. Upon arrival, the rats were weighed, and then randomized into the 12 treatment groups using a stratified randomization scheme, stratifying by body weight.
# Shown in Table 5 below is the 3×4 factorial study design and includes the number of rats that finished the maze tests. […]
# After the training, the rats were tested twice per day (in the morning and afternoon) 4 consecutive days per week for two weeks. […] A visit to an arm was recorded if the rat reached three-fourths of the length of the arm. The maze performance was recorded as the number of correct choices in the first 8 visits. A mistake was counted if a rat reentered an arm from which the rat has already eaten the bait. […]
# All data were analyzed using BMDP Statistical Software, version 7.0 (Los Angeles, Calif.). Uterine weights expressed as a percentage of body weight and body weight violated the assumption of equal variances, and were not normally distributed. […] Body weight, uterine weight, and maze data were analyzed by 2-way ANOVA. […]
compound,measurement,setting,value
Nc1ccncc1 [4-aminopyridine],Effects on Cognitive Function,[1],Unchanged/Slight Improvement
COC(=O)C1=CCCN(C)C1 [Arecoline],Effects on Cognitive Function,[1],Unchanged/Slight Improvement
CC(C[N+](C)(C)C)OC(N)=O (centres unmarked) [Bethanecol],Effects on Cognitive Function,[1],Unchanged/Slight Improvement
"C/C=C1\[C@H]2C=C(C)C[C@]1(N)c1ccc(=O)[nH]c1C2 [Huperzine A, (5R, 9R, 11E)-5-amino-11-ethylidene-5,6,9,10-tetrahydro-7-methyl-5,9-methanocycloocta(b)pyridin2(1H)-one]",cognitive function (proportion of animals with improved working memory),aged ovariectomized rats; Hup A 0.3 mg/Kg orally for 3 weeks added to E2 treatment,slightly improved
same,cognitive function (proportion of animals with improved working memory),aged ovariectomized rats; Hup A 0.3 mg/Kg orally for 3 weeks added to SPE treatment,considerably improved
same,Effects on Cognitive Function,[1],Significant Improvement
CN1CCCC1c1cccnc1 (centres unmarked) [Nicotine],Effects on Cognitive Function,[1],Slight Improvement
O=C1CCCN1CC#CCN1CCCC1 [Oxotremorine],Effects on Cognitive Function,[1],Unchanged
CNC(=O)Oc1ccc2c(c1)[C@]1(C)CCN(C)[C@@H]1N2C [Physostigmine],half-life,[2],short half-life
CC[C@@H]1C(=O)OC[C@@H]1Cc1cncn1C [Pilocarpine],Effects on Cognitive Function,[1],Unchanged
Nc1c2c(nc3ccccc13)CCCC2 [Tacrine],Effects on Cognitive Function,[1],Unchanged to Significant Improvement
same,improving symptoms of Alzheimer's disease,[1]; in vivo,mildly effective
same,Abdominal Cramps,patients,38 Per Cent of Patients
same,Diarrhea,patients,23 Per Cent of Patients
same,Dizziness,patients,12 Per Cent of Patients
same,Excessive Sweating,patients,4 Per Cent of Patients
same,Nausea,patients,25 Per Cent of Patients
same,Polyuria,patients,25 Per Cent of Patients
same,Ptyalsim,patients,10 Per Cent of Patients
same,Vomitin,patients,15 Per Cent of Patients
same,liver toxicity,liver,toxic to the liver
"CC12CCC3c4ccc(O)cc4CCC3C1CCC2O (stereo not drawn) [estradiol, 17-β estradiol]",performance of the radial arm maze tests,[3],dosedependent improvement
same,maze performance (working memory) versus Ctl group,"aged ovariectomized rats; at both 1 and 3 months of treatment, after 12 months of estrogen-deficiency",significantly better
Lecithin,Effects on Cognitive Function,[1],Unchanged/Slight Improvement
Phosphatidylserine,Effects on Cognitive Function,[1],Slight Improvement
